Laboratory results: patent US6008240A, “2-(1H-4(5)-imidazoyl) cyclopropyl derivatives” (Gliatech, Inc., priority 1997, dated 1999)
Counter-ions that a name gives are not always drawn.

These compounds were tested against T1, Histamine H3 Receptor (Rattus norvegicus, UniProt Q9QYN8) (assay: In Vitro Histamine H3 Receptor Binding Analysis ([3H]-Nα-methylhistamine, rat cortical membranes)). Settings: not given.
T1 construct: from tissue; host or cells: rat cerebral cortex membranes
Description: Histamine H3 receptor affinity was determined in rat cortical membranes using the H3 selective agonist ligand, [^3 H]-N^α -methylhistamine (78.9 Ci/mmole, DuPont NEN Research Products, Boston, Mass.) according to the method of West et al., (1990) Mol. Pharmacol. 38: 610-613 with modifications. Briefly, animals were sacrificed by decapitation and the cerebral cortex was rapidly removed. Rat cortices were mechanically homogenized with an Omni 1000 motor driven homogenizer in 10 volumes (wt/vol) of Krebs-Ringers Hepes buffer (pH 7.4) containing the following protease inhibitors; EDTA (10 mmol), PMSF (0.1 mM), chymostatin (0.2 mg/50 mL) and leupeptin (0.2 mg/50 mL). The homogenate was centrifuged in a Sorvall at ~40,000 x g for 30 min. The pellet was resuspended by mechanical homogenization in 25 mL water and lysed on ice for 30 min. The homogenate was recentrifuged and the membrane lysis was repeated. The membranes were recentrifuged and the final pellet was resuspended in 14 volumes of water to give approximately 200 μg protein/100 μl final concentration. The suspension was stored at -80° C. prior to use. Protein concentrations were determined by Coomassie Plus Protein Assay (Pierce, Rockford, Ill.).
Nonspecific binding (NSB) was accounted for by the inclusion of thioperamide (10 μM). Samples were incubated for 40 minutes at 25° C. The samples were filtered through glass fiber strips, pre-washed with 0.3% polyethyleneimine, using a Brandell cell harvester. The filters were rapidly washed three times with 4 ml of 25 mM Tris buffer containing 145 mM NaCl (pH 7.4, 4° C.). Filters were transferred to polyethylene minivials and counted in 3.5 ml of scintillation fluid (Ecolume, ICN Biomedicals, Inc.). Using this procedure, the non-specific binding was less than 10% of the total binding and the binding to the glass fiber filters was negligible. Saturation and competition experiments were analyzed with the ReceptorFit saturation and competition curve fitting programs (Lundon Software, Inc., Cleveland, Ohio).

T1 sequence (Q9QYN8 whole entry): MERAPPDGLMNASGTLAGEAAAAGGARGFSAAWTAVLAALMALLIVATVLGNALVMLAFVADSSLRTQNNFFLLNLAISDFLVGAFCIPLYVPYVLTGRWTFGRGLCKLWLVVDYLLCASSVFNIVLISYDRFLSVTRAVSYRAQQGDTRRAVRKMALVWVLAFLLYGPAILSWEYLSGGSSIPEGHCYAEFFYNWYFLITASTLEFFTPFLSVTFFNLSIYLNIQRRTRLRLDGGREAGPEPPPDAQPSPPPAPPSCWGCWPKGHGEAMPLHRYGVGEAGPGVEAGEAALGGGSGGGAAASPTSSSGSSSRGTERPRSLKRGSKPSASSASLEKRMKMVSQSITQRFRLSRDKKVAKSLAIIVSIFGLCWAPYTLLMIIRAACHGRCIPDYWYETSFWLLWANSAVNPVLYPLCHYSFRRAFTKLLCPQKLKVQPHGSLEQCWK

Question: `C[C@@H](NC(=O)[C@@H]1C[C@H]1c1cnc[nH]1)C1CCCCC1` (mixture of isomers) [Example 6, N-[(R)-1-cyclohexylethyl]-3-(1H-imidazol-4-yl)-trans-(2R,3R)-cyclopropanamide and N-[(R)-1-cyclohexylethyl]-3-(1H-imidazol-4-yl)-trans-(2S,3S)-cyclopropanamide hydrochloride] was tested. Which Ki did it give?
Answer: 70 ± 8.6 nM

Question: `O=C(CCCC1CCCCC1)[C@@H]1C[C@H]1c1c[nH]cn1` (racemic) [Example 10, (±)-trans-4-cyclohexyl-1-(2-imidazol-4-ylcyclopropyl) butan-1-one] was tested. Which Ki did it give?
Answer: 97 ± 21 nM

Question: For `C(#C[C@@H]1C[C@H]1c1c[nH]cn1)CCC1CCCC1` (racemic) [Example 54, (±)-trans-4-(2-(4-Cyclopentylbut-1-ynyl)cyclopropyl)imidazole], which Ki is on record?
Answer: 1.43 ± 0.33 nM

Question: Which Ki does the source give for `C(#C[C@@H]1C[C@H]1c1c[nH]cn1)CCC1CCCCC1` (racemic) [Example 55, (±)trans-4-(2-(4-cyclohexylbut-1-ynyl)cyclopropyl)imidazole] here?
Answer: 1.8 ± 0.64 nM

Question: With `O=C(NCc1ccccc1)[C@@H]1C[C@H]1c1c[nH]cn1` (relative stereo) [Example 1, N-(1-benzyl)-3-[(1H-imidazol-4-yl)]-(2R,3R)-trans-cyclopropanamide and N-(1-benzyl)-3-[(1H-imidazol-4-yl)]-(2S,3S)-trans-cyclopropanamide hydrochloride] as the compound, how does the Ki read?
Answer: 53 ± 2 nM

Question: For `O=C(NCC1CCCCC1)[C@@H]1C[C@H]1c1c[nH]cn1` (relative stereo) [Example 2, (±)-trans-N-(cyclohexylmethyl)(2-imidazol-4-ylcyclopropyl)formamide], which Ki is on record?
Answer: 37 ± 4 nM

Question: How did the Ki turn out when `C(=C/[C@@H]1C[C@H]1c1c[nH]cn1)/CCC1CCCCC1` (relative stereo) [Example 16, (±)-trans4-(2-(4-Cyclohexylbut-cis-1-enyl)cyclopropyl)imidazole] was run?
Answer: 12.2 ± 1 nM

Question: How did the Ki turn out when `O=C(N[C@@H]1C[C@H]1c1c[nH]cn1)OCc1ccccc1` (relative stereo) [Example 26, (±)-trans-N-(2-imidazol-4-ylcyclopropyl)(phenylmethoxy)formamide] was run?
Answer: 5.8 ± 0.4 nM

Question: How did the Ki turn out when `O=C(NCCCC1CCCCC1)[C@@H]1C[C@H]1c1c[nH]cn1` (relative stereo) [Example 29, N-[3-cyclohexylpropyl]-3(R)-[1H-imidazol-4-yl]-2(R)-cyclopropanamide and N-[3-cyclohexylpropyl]-3(S)-[1H-imidazol-4-yl]-2(S)-cyclopropanamide] was run?
Answer: 36 ± 8 nM

Question: With `CC(C)CCC#C[C@@H]1C[C@H]1c1cnc[nH]1` (relative stereo) [Example 40, (±)-4-(2-(5-Methylhex-1-ynyl)cyclopropyl)imidazole] as the compound, how does the Ki read?
Answer: 6.5 ± 1.5 nM

Question: `C(#C[C@@H]1C[C@H]1c1cnc[nH]1)CCCCc1ccccc1` (relative stereo) [Example 41, (±)-4-(2-(6-Phenylhex-1-ynyl)cyclopropyl)imidazole] was tested. Which Ki did it give?
Answer: 16 ± 0.6 nM

Question: `O=C(N[C@@H]1C[C@H]1c1c[nH]cn1)OCCC1CCCCC1` (relative stereo) [Example 46, (±)-trans-(Cyclohexylethoxy)-N-(2-imidazol-4-cyclopropyl) formamide] was tested. Which Ki did it give?
Answer: 29 ± 1.2 nM

Question: With `O=C(N[C@@H]1C[C@H]1c1cnc[nH]1)OCCC1CCCC1` (relative stereo) [Example 49, (±)-trans-(2-Cyclopentylethoxy)-N-(2-imidazol-4-ylcyclopropyl) formamide] as the compound, how does the Ki read?
Answer: 13 ± 1.5 nM

Question: For `O=C(N[C@@H]1C[C@H]1c1cnc[nH]1)OCc1ccccc1Br` (relative stereo) [Example 50, (±)-trans-(2-Bromophenyl)methoxy)-N-(2-imidazol-4-ylcyclopropyl) formamide], which Ki is on record?
Answer: 8 ± 0.43 nM

Question: How did the Ki turn out when `O=C(N[C@@H]1C[C@H]1c1cnc[nH]1)OCc1cccc(Br)c1` (relative stereo) [Example 51, (±)-trans-((3-Bromophenyl)methoxy)-N-(2-imidazol-4-ylcyclopropyl) formamide] was run?
Answer: 9.9 ± 0.35 nM

Question: For `COC(=O)/C=C\[C@@H]1C[C@H]1c1cnc[nH]1` (relative stereo) [Example 53, (±) trans-Methyl-3-(2-imidazol-4-ylcyclopropyl)prop-2-enoate], which Ki is on record?
Answer: 21.6 ± 3.6 nM

Same assay, conditions: rat cortical membranes; 0.8-1.2 nM [3H]-Nα-methylhistamine; 40 minutes at 25° C.; pH 7.4; read-out: H3 Receptor Ki

Question: For `C[C@H](NC(=O)[C@@H]1C[C@H]1c1cnc[nH]1)C1CCCCC1` (mixture of isomers) [Example 7, N-[(S)-1-cyclohexylethyl]-3-(1H-imidazol-4-yl)- trans-(2R,3R)-cyclopropanamide and N-[(S)-1-cyclohexylethyl]-3-(1H-imidazol-4-yl)-trans-(2S,3S)-cyclopropanamide hydrochloride], which Ki is on record?
Answer: 146 ± 13 nM

Question: How did the Ki turn out when `CN(CC1CCCCC1)C(=O)[C@@H]1C[C@H]1c1c[nH]cn1` (racemic) [Example 11, (±)-trans-N-(cyclohexylmethyl)(2-imidazol-4-ylcyclopropyl)-N-methylformamide] was run?
Answer: 134 ± 1 nM

Question: How did the Ki turn out when `c1nc([C@@H]2C[C@H]2COCCCC2CCCCC2)c[nH]1` (racemic) [Example 18, (±)-trans-(3-Cyclohexylpropoxy)(2-imidazol-4-ylcyclopropyl)methane] was run?
Answer: 240 ± 6 nM

Question: With `OC(CCCC1CCCCC1)[C@@H]1C[C@H]1c1c[nH]cn1` (mixture of isomers) [Example 19, (±)-trans4-Cyclohexyl-1-(2-imidazol-4-ylcyclopropyl)butan-1-ol] as the compound, how does the Ki read?
Answer: 160 ± 9 nM

Question: For `N[C@H](Cc1ccc(Br)cc1)C(=O)N[C@@H]1C[C@H]1c1c[nH]cn1` (racemic) [Example 43, (1R,2R)-trans-(±)-2-Amino-3-(4-bromophenyl)-N-(2-imidazol-4-ylcyclopropyl)propanamide], which Ki is on record?
Answer: 13.7 ± 1.5 nM

Question: For `CC1CCCCN1CCCNC(=O)[C@@H]1C[C@H]1c1c[nH]cn1` (relative stereo) [Example 3, (±)-trans-(2-imidazol-4-ylcyclopropyl)-N-(3-((±)-2-methylpiperidyl)propyl)formamide], which Ki is on record?
Answer: 659 ± 52 nM

Question: With `O=C(Nc1ccccc1)[C@@H]1C[C@H]1c1c[nH]cn1` (relative stereo) [Example 5, N-(phenyl)-3-(1H-imidazol-4-yl)-trans-(2R,3R)-cyclopropanamide and N-(phenyl)-3-(1H-imidazol-4-yl)-trans-(2S,3S)-cyclopropanamide hydrochloride] as the compound, how does the Ki read?
Answer: 267 ± 26 nM

Question: Which Ki does the source give for `O=C(NCC12CC3CC(CC(C3)C1)C2)[C@@H]1C[C@H]1c1c[nH]cn1` (relative stereo) [Example 8, (±)-trans-N-(adamantanylmethyl) (2-imidazol-4-ylcyclopropyl)formamide] here?
Answer: 55 ± 6 nM

Question: `O=C(NCCc1ccccc1)[C@@H]1C[C@H]1c1c[nH]cn1` (relative stereo) [Example 9, (±)-trans-(2-imidazole-4-ylcyclopropyl)-N-(2-phenylethyl)formamide] was tested. Which Ki did it give?
Answer: 163 ± 19 nM

Question: With `O=C(NCC1CC1)[C@@H]1C[C@H]1c1c[nH]cn1` (relative stereo) [Example 32, (±)-trans-N-(Cyclopropylmethyl)(2-imidazol-4-ylcyclopropyl)formamide] as the compound, how does the Ki read?
Answer: 876 ± 158 nM

Question: `O=C(NCCCc1ccccc1)[C@@H]1C[C@H]1c1c[nH]cn1` (relative stereo) [Example 33, (±)-trans-(2-imidazol-4-ylcyclopropyl)-N-(3-phenylpropyl) formamide] was tested. Which Ki did it give?
Answer: 197 ± 23 nM

Question: Which Ki does the source give for `O=C(NCCc1c[nH]cn1)[C@@H]1C[C@H]1c1c[nH]cn1` (relative stereo) [Example 34, (±)-trans-(2-imidazol-4-ylcyclopropyl)-N-(2-imidazol-4-ylethyl) formamide] here?
Answer: 227 ± 26 nM

Question: `O=C(NCCc1c[nH]c2ccccc12)[C@@H]1C[C@H]1c1c[nH]cn1` (relative stereo) [Example 35, (±)-trans-(2-imidazol-4-ylcyclopropyl)-N-(2-indol-3-ylethyl) formamide] was tested. Which Ki did it give?
Answer: 441 ± 73 nM

Question: `O=C(NCC(O)CC1CCCCC1)[C@@H]1C[C@H]1c1c[nH]cn1` (relative stereo) [Example 36, (±)-trans-N-(3-Cyclohexyl-2-(±)-hydroxypropyl)(2-imidazol-4-ylcyclopropyl)formamide] was tested. Which Ki did it give?
Answer: 145 nM

Question: Which Ki does the source give for `O=C(NCCCCC1CCCCC1)[C@@H]1C[C@H]1c1c[nH]cn1` (relative stereo) [Example 37, (±)-trans-N-(4-Cyclohexylbutyl)(2-imidazol-4-ylcyclopropyl)formamide] here?
Answer: 68 ± 9.1 nM

Question: How did the Ki turn out when `CC(C)(C)CCC#C[C@@H]1C[C@H]1c1c[nH]cn1` (relative stereo) [Example 38, (±)-4-(2-(5,5-Dimethylhex-1-ynyl)cyclopropyl)imidazole] was run?
Answer: 0.33 ± 0.1 nM

Question: How did the Ki turn out when `O=C(N[C@@H]1C[C@H]1c1cnc[nH]1)OCCCc1ccccc1` (relative stereo) [Example 47, (±)-trans-N-(2-imidazol-4-ylcyclopropyl)(3-phenylpropoxy)formamide] was run?
Answer: 41 ± 3.4 nM

Question: For `O=C(N[C@@H]1C[C@H]1c1cnc[nH]1)OCCCC1CCCCC1` (relative stereo) [Example 48, (±)-trans-(3-Cyclohexylpropoxy)-N-(2-imidazol-4-ylcyclopropyl) formamide], which Ki is on record?
Answer: 55 ± 11 nM

Same assay, conditions: read-out: H3 Receptor Ki; rat cortical membranes; 0.8-1.2 nM [3H]-Nα-methylhistamine; 40 minutes at 25° C.; pH 7.4

Question: How did the Ki turn out when `O=C(NCC1CCCCC1)[C@H]1C[C@@H]1c1c[nH]cn1` [Example 2a] was run?
Answer: 23 ± 1 nM
